Results reported in publication PMC3815952 (Microbial biotechnology, 2009).

Columns and labels:
Bcen2424–2051 = settings: read-out: Substrates / Chloroacetate / KM; Tris-SO4 pH 8.5, 30°C
RPA1163 = RPA1163 (Rhodopseudomonas palustris, UniProt Q6NAM1); experiment: calorimetry, non-linear regression; assay type: biochemical; settings: Tris-SO4 pH 8.5, 30°C
RHA1_ro00230 = RHA1_ro00230 (Rhodococcus jostii, UniProt Q0SK70); experiment: calorimetry, non-linear regression; assay type: biochemical; settings: Tris-SO4 pH 8.5, 30°C
Adeh3811 = experiment: calorimetry, non-linear regression; assay type: biochemical, Anaeromyxobacter dehalogenans; settings: Tris-SO4 pH 8.5, 30°C
Bpro4516 = settings: Tris-SO4 pH 8.5, 30°C

RPA1163, sequence (Q6NAM1 whole entry): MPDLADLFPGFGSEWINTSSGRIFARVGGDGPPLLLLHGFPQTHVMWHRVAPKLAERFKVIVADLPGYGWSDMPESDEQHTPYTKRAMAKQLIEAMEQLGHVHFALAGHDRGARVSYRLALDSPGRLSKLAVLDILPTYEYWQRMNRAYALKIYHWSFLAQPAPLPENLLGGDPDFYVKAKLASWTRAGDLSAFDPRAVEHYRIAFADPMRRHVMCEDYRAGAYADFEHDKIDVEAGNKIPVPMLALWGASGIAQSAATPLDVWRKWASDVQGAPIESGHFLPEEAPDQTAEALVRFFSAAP
RHA1_ro00230, sequence (Q0SK70 1-254): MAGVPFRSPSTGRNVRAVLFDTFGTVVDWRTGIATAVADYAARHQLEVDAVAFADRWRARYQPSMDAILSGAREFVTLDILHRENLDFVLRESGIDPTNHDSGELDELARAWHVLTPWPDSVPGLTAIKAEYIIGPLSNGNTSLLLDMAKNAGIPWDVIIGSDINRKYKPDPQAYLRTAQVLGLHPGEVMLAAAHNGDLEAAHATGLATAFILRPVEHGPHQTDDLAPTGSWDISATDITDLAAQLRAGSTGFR

With O=C(O)CCl [chloroacetate] the Km (Bcen2424–2051) was 17 ± 2 µM, the “Substrates / Chloroacetate / KM (μM)” value (RPA1163) was 1 400 ± 400 µM and the “Substrates / Chloroacetate / KM (μM)” value (RHA1_ro00230) was 19 000 ± 2000 µM.

For O=C(O)CF [fluoroacetate], the “Substrates / Fluoroacetate / KM (μM)” value (Adeh3811) was 13 500 ± 300 µM, the “Substrates / Fluoroacetate / KM (μM)” value (Bpro4516) was 19 000 ± 2000 µM and the “Substrates / Fluoroacetate / KM (μM)” value (RPA1163) was 3 300 ± 200 µM. The “Substrates / Fluoroacetate / KM (μM)” value (RHA1_ro00230) was 20 000 ± 2000 µM.
